One data set deals with S. aureus biofilms. As to the kind of experiment: Single antibiotic treatment of S. aureus biofilms (SGT method). Format: cell-based, Staphylococcus aureus. Particulars: for biofilm bactericidal concentration (BBC): S. aureus biofilms grown 48 h, 24 h treatment, 3 log10 CFU (99.9%) reduction vs control. From the text:
(§1) FIGS. 1A and 1B illustrates effects of different antibiotics tested in a dose-dependent manner against bacterial biofilms of different isolates of S. aureus and E. faecalis using only one antibiotic per treatment to screen the effect of the single antibiotics against bacterial biofilms. The graphs show the decadic logarithm of the colony forming units (log10 CFU) of either S. aureus or E. faecalis on the ordinate in relation to the concentration of various antibiotics on the abscissa. Data points belonging to one antibiotic were connected by lines for clarity. In each graph, the dashed line reflects the biofilm bactericidal concentration (BBC), defined as the target of 3 log10 CFU below the control, i.e. the log10 CFU of untreated biofilms (shown at the antibiotic concentration of 0 mg/L), which needs to be undercut to achieve a meaningful suppression of the bacteria in a biofilm of ≥99.9%. The line graphs intersecting this line indicate the antibiotics' concentrations that need to be applied for effective treatment in S. aureus and E. faecalis biofilms. […] For instance, the BBC of rifampicin against S. aureus is ˜4 mg/L; the BBC of dalbavancin is ˜32 mg/L against E. faecalis in biofilms.
FIGS. 1A and 1B illustrate the effect of different antibiotics tested in a dose-depended manner against bacterial biofilms of different bacterial isolates of S. aureus and E. faecalis using only one antibiotic per treatment to screen the effect of the single antibiotics against bacterial biofilms. To obtain the results the inventors used four strains of S. aureus, i.e. three patient isolates and one reference strain, and three strains of E. faecalis, i.e. two isolates from patients as well as one reference strain. In order to test the different antibiotics individually against the bacterial biofilms, the inventors incubated bacterial suspensions of E. faecalis and S. aureus strains in a 96 well microtiter plate for biofilm formation for 48 hours in a humidified modified atmosphere at 37° C. and 5% CO2 without shaking. For the antibiotic treatment of the biofilms the supernatant of each well was removed and the antibiotic treatment with the individual antibiotics to be tested was added to the biofilms and incubated for 24 hours at the same conditions. The number of bacteria in each well after the 24-hour treatment was determined via so called start-growth-time (SGT) method, where the bacterial regrowth of the dispersed bacteria from the biofilms was measured in an incubation chamber of a plate reader over time. Lower bacteria densities lead to a longer regrowth time to reach a certain threshold compared to controls. Each treatment for each strain was performed in three technical replicates. […]

In data set [1] the test system is planctonic Enterococcus faecalis. Kind of data set: Minimal inhibitory concentration for planktonic Enterococcus faecalis. It counts as cell-based.
The conditions of data set [2]: cited from earlier work.
The test system of a further data set is E. faecalis biofilms. As to the kind of experiment: Single antibiotic treatment of E. faecalis biofilms (SGT method). The note with it: for biofilm bactericidal concentration (BBC): E. faecalis biofilms grown 48 h, 24 h treatment, 3 log10 CFU (99.9%) reduction vs control. It counts as cell-based, Enterococcus faecalis.
Excerpt: as §1
FIGS. 1A and 1B illustrate the effect of different antibiotics tested in a dose-depended manner against bacterial biofilms of different bacterial isolates of S. aureus and E. faecalis using only one antibiotic per treatment to screen the effect of the single antibiotics against bacterial biofilms. To obtain the results the inventors used four strains of S. aureus, i.e. three patient isolates and one reference strain, and three strains of E. faecalis, i.e. two isolates from patients as well as one reference strain. […] The number of bacteria in each well after the 24-hour treatment was determined via so called start-growth-time (SGT) method, where the bacterial regrowth of the dispersed bacteria from the biofilms was measured in an incubation chamber of a plate reader over time. […]

A further data set deals with planktonic S. aureus. Kind of data set: Minimal inhibitory concentration for planktonic S. aureus. It counts as cell-based. The note with it: Staphylococcus aureus.
Where [3] appears, read: systemic therapy, 'believed to be'.

Values after ≈ are worked out from the molar mass of the structure shown. “Also recorded” adds a separate entry of the source. Where two headings read alike, the source gives them in different places.

In the case of `NCC[C@H](O)C(=O)N[C@@H]1C[C@H](N)[C@@H](O[C@H]2O[C@H](CN)[C@@H](O)[C@H](O)[C@H]2O)[C@H](O)[C@H]1O[C@H]1O[C@H](CO)[C@@H](O)[C@H](N)[C@H]1O` [Amikacin, amikacin], the “biofilm bactericidal concentration (BBC)” value in the data set with S. aureus biofilms is listed as above 512 mg/L.
Turning to `CN[C@H]1C(=O)N[C@@H]2Cc3ccc(cc3)Oc3cc4cc(c3O[C@@H]3O[C@H](C(=O)O)[C@@H](O)[C@H](O)[C@H]3NC(=O)CCCCCCCCC(C)C)Oc3ccc(cc3Cl)[C@@H](O)[C@@H]3NC(=O)[C@H](NC(=O)[C@@H]4NC(=O)[C@@H](NC2=O)c2cc(cc(O)c2Cl)Oc2cc1ccc2O)c1ccc(O)c(c1)-c1c(O[C@H]2O[C@H](CO)[C@@H](O)[C@H](O)[C@@H]2O)cc(O)cc1[C@@H](C(=O)NCCCN(C)C)NC3=O` [dalbavancin], the “biofilm bactericidal concentration (BBC)” value with S. aureus biofilms is listed as “about 4 mg/L”.
Consider `CCCCCCCCCC(=O)N[C@@H](Cc1c[nH]c2ccccc12)C(=O)N[C@H](CC(N)=O)C(=O)N[C@@H](CC(=O)O)C(=O)N[C@@H]1C(=O)NCC(=O)N[C@@H](CCCN)C(=O)N[C@@H](CC(=O)O)C(=O)N[C@H](C)C(=O)N[C@@H](CC(=O)O)C(=O)NCC(=O)N[C@H](CO)C(=O)N[C@@H]([C@H](C)CC(=O)O)C(=O)N[C@@H](CC(=O)c2ccccc2N)C(=O)O[C@@H]1C` [daptomycin], for which the MIC (in data set [1]; in the data set with planktonic S. aureus) was around 0.25 µg/mL (≈ 0.154 µM) throughout. Moreover, the “approximate concentration in tissue with systemic therapy” value (“approximate concentration in tissue” below) in data set [2] (in vivo) was around 4 mg/L. Moreover, the “suppression of bacteria in biofilms (in words)” value in the data set with S. aureus biofilms (S. aureus biofilms, single antibiotic) was “can suppress the bacteria sufficiently; also recorded: highest potency”; with E. faecalis biofilms (E. faecalis biofilms, single antibiotic), “can suppress the bacteria sufficiently; also recorded: highest potency”. The “biofilm bactericidal concentration (BBC)” value in the data set on E. faecalis biofilms is “about 32 mg/L”.
In the case of `C[C@@H]1O[C@@H]1P(=O)(O)O` [phosphomycin], the “biofilm bactericidal concentration (BBC)” value with E. faecalis biofilms was above 1024 mg/L.
Turning to `CO[C@H]1/C=C/O[C@@]2(C)Oc3c(C)c(O)c4c(O)c(c(/C=N/N5CCN(C)CC5)c(O)c4c3C2=O)NC(=O)/C(C)=C\C=C\[C@H](C)[C@H](O)[C@@H](C)[C@@H](O)[C@@H](C)[C@H](OC(C)=O)[C@@H]1C` [rifampicin], in data set [2] (setting [3]), the “approximate concentration in tissue” value is given as around 1 mg/L. In the data set on S. aureus biofilms, the “biofilm bactericidal concentration (BBC)” value is on record as around 4 mg/L. The same molecule yielded an MIC in the data set with planktonic S. aureus of around 0.004 µg/mL (≈ 0.00486 µM).
On to `CN[C@H](CC(C)C)C(=O)N[C@H]1C(=O)N[C@@H](CC(N)=O)C(=O)N[C@H]2C(=O)N[C@H]3C(=O)N[C@H](C(=O)N[C@H](C(=O)O)c4cc(O)cc(O)c4-c4cc3ccc4O)[C@H](O)c3ccc(c(Cl)c3)Oc3cc2cc(c3O[C@@H]2O[C@H](CO)[C@@H](O)[C@H](O)[C@H]2O[C@H]2C[C@](C)(N)[C@H](O)[C@H](C)O2)Oc2ccc(cc2Cl)[C@H]1O` [vancomycin], for which the “approximate concentration in tissue” value in data set [2] (setting [3]) was around 1 mg/L.
